Read-outs that look alike come from different tables or passages of the source.

Data set [1] deals with various human cell lines. Particulars: cited from earlier work.
Data set [2] concerns HEK-293 cells. Put plainly: cellular morphology (May–Grünwald–Giemsa staining). The data set is classed as cell-based, human. The settings on record: HEK-293, 72 h. On the procedure:
(§1) This method was used to illustrate changes in cell morphology under the influence of the tested compounds. The staining was performed on Lab-Tek plates (Nunc, NY, USA). Cells at a density of 1 × 10^5 cells/mL were used. After 72 h of incubation with or without the tested drugs (control), the culture medium was removed, and the cells were stained with 1 mL of May–Grünwald dye for 3 min at room temperature. Then, 1 mL of deionized water was added to each plate. After another 3 min of incubation at room temperature, the liquid was removed. All plates were rinsed with deionized water, and the cells were subsequently stained with Giemsa dye (dilution 1:20) for 30 min at room temperature. After staining, the dye was removed, the wells were rinsed with 1 mL of deionized water, and the plates were allowed to dry. Images were captured using a light microscope (Zeiss, Oberkochen, Germany).

In data set [3] the test system is SH-SY5Y cells. Briefly: cellular morphology (May–Grünwald–Giemsa staining). The data set is classed as cell-based, human. The settings on record: 72 h. On the procedure:
as §1

Data set [4] deals with HepG2 cells. Put plainly: cellular morphology (May–Grünwald–Giemsa staining). Format: cell-based, human. Particulars: HepG2, 72 h. On the procedure:
as §1

Data set [5] relates to SH-SY5Y cells. Also on record: method as in PMID 16341128. Particulars: 24 h, cited from earlier work.
The conditions of data set [6]: cited from earlier work.

As to `C[C@H]1c2cccc(O)c2C(=O)C2=C(O)[C@]3(O)C(=O)C(C(N)=O)=C(O)[C@@H](N(C)C)[C@@H]3[C@@H](O)[C@@H]21` [DOX, doxycycline hyclate], the “effect of extended incubation on human cell lines” value in data set [1] (96 h, 0.1 to 10 µg/mL, increased lactate production and decreased oxygen consumption) is “cytotoxic effects”. Moreover, in data set [1] (tested human cell cultures), the “concentration observed to inhibit proliferation and induce apoptotic cell death” value was 1000 ng/mL. Further, the morphological changes result in data set [2], in data set [3] and in data set [4] was “cell aggregation followed by detachment from the adhesive surface” in each case. Further, the “effect on cell density” value is reported as “minimal” in data set [5] (1 µg/mL) and “decreased SH-SY5Y cell density” in data set [5] (higher concentrations up to 4 µg/mL). Moreover, the “DOX level in breast muscles” value in data set [6] (breast muscles) is 32.4 ± 3.6 µg/kg. Besides, the “residues of DOX detected in eggs” value in data set [6] (eggs) was “up to 1400 μg/kg”. Moreover, the “DOX concentration accumulated in the kidneys” value in data set [6] (kidneys) was 44.7 ± 4.3 µg/kg. Further, the “DOX concentration measured in the liver” value in data set [6] (liver) was 21.6 ± 3.2 µg/kg. In addition, the “residues of DOX detected in milk” value in data set [6] (milk) is 5 to 490 µg/kg. Moreover, the “DOX level in thigh muscles” value in data set [6] (thigh muscles) is 22.7 ± 2.9 µg/kg.

Source of the values: PMC12610721, “The Action of Cannabidiol on Doxycycline Cytotoxicity in Human Cells—In Vitro Study” (Molecules, 2025).
